Laboratory results published in paper PMC8125686, “Molecular Basis of Multiple Mitochondrial Dysfunctions Syndrome 2 Caused by CYS59TYR BOLA3 Mutation” (International Journal of Molecular Sciences, 2021).

Biological target: T1, NFU1 (Homo sapiens, UniProt Q9UMS0)
T1 sequence (Q9UMS0 10-254): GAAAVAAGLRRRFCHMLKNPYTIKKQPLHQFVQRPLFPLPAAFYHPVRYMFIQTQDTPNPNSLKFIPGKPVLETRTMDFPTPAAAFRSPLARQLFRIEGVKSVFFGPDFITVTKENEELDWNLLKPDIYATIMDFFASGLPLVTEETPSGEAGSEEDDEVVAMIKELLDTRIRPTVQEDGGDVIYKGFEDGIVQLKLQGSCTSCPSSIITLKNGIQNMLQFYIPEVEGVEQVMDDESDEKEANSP
Assay: 1H-15N HSQC NMR of cluster assembly on 15N-labelled apo NFU1
Assay type: binding
Conditions: cluster donor [2Fe-2S] C59Y BOLA3-GLRX5 at 1:1; 5 mM DTT; 5 mM GSH; anaerobic

Compound: [S]12[Fe]3[S]4[Fe]1[S]1[Fe]2[S]3[Fe]41 [[4Fe–4S]2+ cluster]
- amount of [4Fe-4S] NFU1 formed in the final mixture: 25%
